Measured values as given in US20230047027A1, “COMPOSITIONS AND METHODS USING CANNABINOID COMPOUNDS FOR REGULATING GASTRIC ACID SECRETION TO TREAT GASTROESOPHAGEAL REFLUX DISEASE AND RELATED CONDITIONS” (Demetrix, Inc., priority 2021, published 2023).
Read-outs that look alike come from different tables or passages of the source.

Legend:
H2 receptor [1] = molecular target: T1, H2 receptor (Homo sapiens, UniProt P25021); assay: IC50 antagonist activity screen (PathHunter β-Arrestin GPCR assay); format: cell-based; conditions: for Maximum inhibition (%) / Emax: maximum inhibition (antagonism) from IC50 curves, about 60% or higher = strong activity; for Emax: read-out: IC50 (Inhibition - Max Response)
T1 sequence (P25021 whole entry): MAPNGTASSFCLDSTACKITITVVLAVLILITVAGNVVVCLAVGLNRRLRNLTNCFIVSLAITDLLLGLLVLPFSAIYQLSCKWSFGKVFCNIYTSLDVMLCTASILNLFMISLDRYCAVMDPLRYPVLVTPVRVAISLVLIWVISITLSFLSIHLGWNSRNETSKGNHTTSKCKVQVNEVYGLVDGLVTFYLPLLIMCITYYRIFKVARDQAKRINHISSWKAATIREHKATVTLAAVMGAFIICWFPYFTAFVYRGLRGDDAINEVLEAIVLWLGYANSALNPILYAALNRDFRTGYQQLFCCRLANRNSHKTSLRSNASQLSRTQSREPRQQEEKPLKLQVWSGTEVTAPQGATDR
Description: It has additionally been discovered that the alkyl side chain length of cannabinoid compounds can influence the effect the cannabinoid compounds have on the GPCR receptors. For example, it has been discovered that increasing the length of the alkyl side chain, generally increases the antagonism of CBG and CBD to the H2 receptor. […] The RC50 value indicates the value at which the cannabinoid reached the reference compound's 50% effective concentration.
(§1) A single assay was run. In each run, PathHunter® cell lines were removed from a freezer stock and seeded at a volume of 20 μL into white walled, 384-well microplates and incubated at 37° C. Each cell was pre-incubated with the cannabinoid compound followed by an agonist challenge at the EC80 concentration. […] were then diluted to generate a 5x sample in assay buffer. 5 μL of the 5x sample was then added to cells and incubated at 37° C. for 30 minutes. Finally, 5 μL of 6x EC80 agonist in assay buffer were added to the cells and incubated at 37° C. for 90 minutes or 180 minutes. The assay signal was generated through addition of 12.5 μL or 15 μL (50% V/V) of a detection reagent cocktail followed by a one hour incubation time at room temperature. Microplates were read following signal generation with a PerkinElmer Envision™ (PerkinElmer Inc., Waltham, Mass.) for chemiluminescent signal detection. Reactivity was analyzed using the CBIS data analysis suite (ChemInnovation, CA) where RLU refers to the raw measured values. The percent inhibition was calculated using the formula: % Inhibition=100%*(1−mean RLU of test sample−mean RLU of control)/(mean RLU of EC80 control−mean RLU of vehicle control).
Based on the results of the GPCR reactivity screen, and IC50 antagonist activity screen was run against the H2 receptor. The IC50 antagonist activity screen was run for each of CBG, CBC, CBL, CBN, CBDV, CBD, CBD-C1, CBD-C2, (+)-CBD, CBG-C6, CBG-C7, CBG-C9, CBD-C6, CBD-C7, CBD-C9, CBGA-C6, CBGA-C7, and CBGA-C9. IC50 curves were measured using the same GPCR assay, PathHunter® β-Arrestin from Eurofins DiscoverX Products (Fremont, Calif.), as the GPCR reactivity screen. As used herein, strong activity against a receptor is considered a maximum activity of about 60% or higher. Higher results for antagonism against the H2 receptor are considered better.

H2 receptor [2] = molecular target: T1, H2 receptor; assay: GPCR reactivity screen (PathHunter β-Arrestin GPCR assay), antagonist mode; format: cell-based; conditions: for H2 Receptor Antagonist Activity (percent inhibition): single assay run, pre-incubation with cannabinoid, then agonist challenge at EC80, test concentration not given, about 60% or higher = strong activity; for H2 antagonist activity in the GPCR reactivity screen (in words): summary of Table 1; for effect on sensitivity to histamine (in words): Table 1, negative inhibition
Description: To evaluate the H2 antagonist activity of the cannabinoid compounds, a GPCR reactivity assay was performed. The evaluated cannabinoid compounds were: CBN, THCV, CBDVA, CBG, CBL, CBC, CBDV, CBDA, CBD, CBGA, (+)-CBD, CBG-C4, CBD-C1, CBD-C2, CBGV, CBGA-C4, CBGVA, CBCA, and CBLA. Tiotidine was used as the control.
as §1
The percent inhibition is depicted. As used herein, strong activity against a receptor is considered a percent activity of about 60% or higher. Higher results for antagonism against the H2 receptor are considered better.

[3] = value at which the cannabinoid reached the reference compound's (tiotidine) 50% effective concentration, H2 receptor antagonist mode, read-out: RC50 (the source's name)

Row | Compound | Maximum inhibition (%) (H2 receptor [1]) | IC50 (H2 receptor [1]; [3]) | H2 Receptor Antagonist Activity (percent inhibition) (H2 receptor [2]) | H2 antagonist activity in the GPCR reactivity screen (in words) (H2 receptor [2]) | also measured
1 | C=C(C)[C@@H]1CCC(C)=C[C@H]1c1c(O)cc(CCCCCC)cc1O [CBD-C6, cannabidol hexyl] | 80 | 0.46 µM | – | – | –
2 | CCCCc1cc(O)c(C/C=C(\C)CCC=C(C)C)c(O)c1C(=O)O [CBGA-C4, cannabigerolic acid butyl] | – | – | 16% | did not demonstrate H2 antagonist activity | –
3 | CCCCCCCc1cc(O)c(C/C=C(\C)CCC=C(C)C)c(O)c1C(=O)O [CBGA-C7, cannabigerolic acid heptyl] | 17 | > 10 µM | – | – | –
4 | CCCCCc1cc(O)c2c(c1)OC(C)(CCC=C(C)C)C=C2 (stereo not shown) [CBC, cannabichromene] | – | – | 117% | – | IC50 (H2 receptor [1]): 2.63 µM; Emax (H2 receptor [1]): 62%
5 | C=C(C)[C@@H]1CCC(C)=C[C@H]1c1c(O)cc(CCC)cc1O [CBDV, cannabidivarin] | – | 4.5 µM | – | – | Emax (H2 receptor [1]): 75%
6 | CCCCCc1cc(O)c2c(c1)OC(C)(C)c1ccc(C)cc1-2 [CBN, cannabinol] | – | – | – | – | IC50 (H2 receptor [1]): > 10 µM; Emax (H2 receptor [1]): 12%
7 | C=C(C)[C@@H]1CCC(C)=C[C@H]1c1c(O)cc(CCCCC)cc1O [CBD, cannabidol] | 64 | 0.83 µM | – | – | –
8 | CCCCc1cc(O)c(CC=C(C)CCC=C(C)C)c(O)c1 [CBG-C4, cannabigerol butyl] | – | – | −62% | did not demonstrate H2 antagonist activity | effect on sensitivity to histamine (in words) (H2 receptor [2]): increasing sensitivity to histamine
9 | C=C(C)[C@@H]1CCC(C)=C[C@H]1c1c(O)cc(CCCCCCC)cc1O [CBD-C7, cannabidol heptyl] | 74 | 0.38 µM | – | – | –
10 | (+)-cannabidiol [(+)-CBD] | 42 | > 10 µM | 45% | did not demonstrate H2 antagonist activity | –
11 | CCCCCc1cc(O)c(C/C=C(\C)CCC=C(C)C)c(O)c1 [CBG, cannabigerol] | – | > 10 µM | – | – | Emax (H2 receptor [1]): 21%
12 | CCCCCCCCCc1cc(O)c(C/C=C(\C)CCC=C(C)C)c(O)c1 [CBG-C9, cannabigerol nonyl] | 96 | 2.89 µM | – | – | –
13 | CCCCCc1cc(O)c2c(c1)OC1(C)CCC3C1C2C3(C)C (stereo not shown) [CBL, cannabicyclol] | – | – | – | – | IC50 (H2 receptor [1]): 1.17 µM; Emax (H2 receptor [1]): 64%
14 | CCCc1cc(O)c2c(c1)OC(C)(C)[C@@H]1CCC(C)=C[C@@H]21 [THCV, tetrahydrocannabivarin] | – | – | −22% | did not demonstrate H2 antagonist activity | effect on sensitivity to histamine (in words) (H2 receptor [2]): increasing sensitivity to histamine
15 | CCCc1cc(O)c(C/C=C(\C)CCC=C(C)C)c(O)c1 [CBGV, cannabigerivarin] | – | – | 10% | did not demonstrate H2 antagonist activity | –
16 | C=C(C)[C@@H]1CCC(C)=C[C@H]1c1c(O)cc(CCCCCCCCC)cc1O [CBD-C9, cannabidol nonyl] | 56 | 0.1 µM | – | – | –
17 | CCCc1cc(O)c(C/C=C(\C)CCC=C(C)C)c(O)c1C(=O)O [CBGVA, cannabigerovarinic acid] | – | – | 2% | did not demonstrate H2 antagonist activity | –
18 | C=C(C)[C@@H]1CCC(C)=C[C@H]1c1c(O)cc(C)cc1O [CBD-C1, cannabidiorcol] | 53 | > 10 µM | 47% | did not demonstrate H2 antagonist activity | –
19 | CCCCCCc1cc(O)c(C/C=C(\C)CCC=C(C)C)c(O)c1 [CBG-C6, cannabigerol hexyl] | 84 | > 10 µM | – | – | –
20 | CCCCCc1cc2c(c(O)c1C(=O)O)C=CC(C)(CCC=C(C)C)O2 (stereo not shown) [CBCA, cannabichromenic acid] | – | – | 12% | did not demonstrate H2 antagonist activity | –
21 | C=C(C)[C@@H]1CCC(C)=C[C@H]1c1c(O)cc(CCC)c(C(=O)O)c1O [CBDVA, cannabidivarinic acid] | – | – | 12% | did not demonstrate H2 antagonist activity | –
22 | CCCCCc1cc2c(c(O)c1C(=O)O)C1C3C(CCC3(C)O2)C1(C)C (stereo not shown) [CBLA, cannabicyclolic acid] | – | – | 11% | did not demonstrate H2 antagonist activity | –
23 | CCCCCCCc1cc(O)c(C/C=C(\C)CCC=C(C)C)c(O)c1 [CBG-C7, cannabigerol heptyl] | 93 | 3.39 µM | – | – | –
24 | CCCCCCc1cc(O)c(C/C=C(\C)CCC=C(C)C)c(O)c1C(=O)O [CBGA-C6, cannabigerolic acid hexyl] | 9 | > 10 µM | – | – | –
25 | CCCCCc1cc(O)c(C/C=C(\C)CCC=C(C)C)c(O)c1C(=O)O [CBGA, cannabigerolic acid] | – | – | −3% | did not demonstrate H2 antagonist activity | effect on sensitivity to histamine (in words) (H2 receptor [2]): increasing sensitivity to histamine
26 | CCCCCCCCCc1cc(O)c(C/C=C(\C)CCC=C(C)C)c(O)c1C(=O)O [CBGA-C9, cannabigerolic acid nonyl] | 11 | > 10 µM | – | – | –
27 | C=C(C)[C@@H]1CCC(C)=C[C@H]1c1c(O)cc(CCCCC)c(C(=O)O)c1O [CBDA, cannabidiolic acid] | – | – | 4% | did not demonstrate H2 antagonist activity | –
28 | C=C(C)[C@@H]1CCC(C)=C[C@H]1c1c(O)cc(CC)cc1O [CBD-C2, cannabidol-C2] | 71 | 5.22 µM | – | – | –
